Assay results as given in ChEMBL document CHEMBL1201862, “PubChem BioAssay data set” (2004).
Blank lines part the entries; values can stand above or below the molecule they belong to. Activity calls are given as the source filed them.

Experiments:
Format in all cases: functional
[1] = molecular target: T1, Hexokinase HKDC1 (Homo sapiens, UniProt Q2TB90); assay: analog inhibition of human HKDC1 activity – biochemical, set 2, SAR follow-up (AID 588355)
T1 sequence (Q2TB90 whole entry): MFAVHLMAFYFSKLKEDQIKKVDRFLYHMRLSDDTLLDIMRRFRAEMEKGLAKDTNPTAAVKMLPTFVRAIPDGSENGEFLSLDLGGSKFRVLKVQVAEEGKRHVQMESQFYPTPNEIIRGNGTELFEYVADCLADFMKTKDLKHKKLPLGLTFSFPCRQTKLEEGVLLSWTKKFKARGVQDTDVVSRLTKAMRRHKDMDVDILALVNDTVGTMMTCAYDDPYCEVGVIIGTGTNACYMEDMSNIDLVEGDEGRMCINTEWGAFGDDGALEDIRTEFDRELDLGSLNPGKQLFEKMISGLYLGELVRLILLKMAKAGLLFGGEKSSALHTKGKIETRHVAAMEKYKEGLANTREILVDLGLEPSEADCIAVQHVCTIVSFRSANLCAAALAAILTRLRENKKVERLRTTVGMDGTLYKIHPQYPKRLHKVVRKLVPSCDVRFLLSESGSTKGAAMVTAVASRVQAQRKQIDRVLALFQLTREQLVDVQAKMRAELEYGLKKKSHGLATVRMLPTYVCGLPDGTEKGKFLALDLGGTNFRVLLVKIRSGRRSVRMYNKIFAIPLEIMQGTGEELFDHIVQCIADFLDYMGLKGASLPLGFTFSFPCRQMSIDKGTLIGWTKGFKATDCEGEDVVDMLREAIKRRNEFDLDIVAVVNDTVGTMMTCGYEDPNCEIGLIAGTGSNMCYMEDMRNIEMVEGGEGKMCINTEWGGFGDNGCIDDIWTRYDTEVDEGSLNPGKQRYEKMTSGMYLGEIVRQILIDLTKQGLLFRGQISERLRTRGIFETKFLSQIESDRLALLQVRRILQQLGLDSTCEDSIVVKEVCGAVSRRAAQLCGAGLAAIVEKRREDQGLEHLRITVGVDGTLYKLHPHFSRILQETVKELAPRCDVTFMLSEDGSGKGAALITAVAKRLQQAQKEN

[2] = molecular target: Genome polyprotein (dengue virus type 2, UniProt P29990); assay: flavivirus cap methylation enzyme inhibition – biochemical, confirmation dose response, primary screen (AID 588689)
[3] = molecular target: T2, Leucine aminopeptidase (Plasmodium falciparum 3D7, UniProt Q8IL11); assay: P. falciparum M17LAP inhibitors, primary screen, biochemical, fluorogenic H-Leu-NHMec substrate, 1536-well (AID 1619)
T2 sequence (Q8IL11 whole entry): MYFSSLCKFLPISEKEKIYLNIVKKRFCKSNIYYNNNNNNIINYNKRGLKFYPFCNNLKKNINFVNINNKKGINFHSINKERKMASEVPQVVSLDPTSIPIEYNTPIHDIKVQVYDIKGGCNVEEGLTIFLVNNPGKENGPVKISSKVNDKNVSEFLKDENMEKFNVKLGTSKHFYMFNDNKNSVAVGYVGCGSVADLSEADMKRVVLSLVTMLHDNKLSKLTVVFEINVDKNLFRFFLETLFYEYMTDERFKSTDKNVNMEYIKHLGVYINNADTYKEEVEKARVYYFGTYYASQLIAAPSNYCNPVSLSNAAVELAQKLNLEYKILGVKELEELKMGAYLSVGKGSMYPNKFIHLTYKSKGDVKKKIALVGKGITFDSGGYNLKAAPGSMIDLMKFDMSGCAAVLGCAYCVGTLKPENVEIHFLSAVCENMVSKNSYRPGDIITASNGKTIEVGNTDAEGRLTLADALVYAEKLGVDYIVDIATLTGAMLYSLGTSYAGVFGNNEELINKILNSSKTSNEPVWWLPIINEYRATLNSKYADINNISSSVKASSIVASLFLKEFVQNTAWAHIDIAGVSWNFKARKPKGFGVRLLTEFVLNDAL

[4] = molecular target: Induced myeloid leukemia cell differentiation protein Mcl-1 (Homo sapiens, UniProt Q07820)
Chain of Induced myeloid leukemia cell differentiation protein Mcl-1 (Q07820 whole entry): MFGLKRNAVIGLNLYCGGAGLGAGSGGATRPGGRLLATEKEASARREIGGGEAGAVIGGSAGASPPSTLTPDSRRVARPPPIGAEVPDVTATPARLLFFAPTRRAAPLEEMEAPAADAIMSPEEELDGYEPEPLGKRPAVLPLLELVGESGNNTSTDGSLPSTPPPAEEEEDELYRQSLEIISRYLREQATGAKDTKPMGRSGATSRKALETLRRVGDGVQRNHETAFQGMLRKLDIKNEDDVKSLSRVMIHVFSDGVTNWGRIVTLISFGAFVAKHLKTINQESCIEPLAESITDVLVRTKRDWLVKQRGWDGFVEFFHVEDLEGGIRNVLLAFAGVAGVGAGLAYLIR

[5] = molecular target: T3, Dual specificity protein phosphatase 6 (Rattus norvegicus, UniProt Q64346);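 note: confirmatory in vitro dose-response testing of MKP-3 inhibition; recombinant His-tagged MKP-3 made in E. coli BL21 with OMFP substrate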
T3 sequence (Q64346 whole entry): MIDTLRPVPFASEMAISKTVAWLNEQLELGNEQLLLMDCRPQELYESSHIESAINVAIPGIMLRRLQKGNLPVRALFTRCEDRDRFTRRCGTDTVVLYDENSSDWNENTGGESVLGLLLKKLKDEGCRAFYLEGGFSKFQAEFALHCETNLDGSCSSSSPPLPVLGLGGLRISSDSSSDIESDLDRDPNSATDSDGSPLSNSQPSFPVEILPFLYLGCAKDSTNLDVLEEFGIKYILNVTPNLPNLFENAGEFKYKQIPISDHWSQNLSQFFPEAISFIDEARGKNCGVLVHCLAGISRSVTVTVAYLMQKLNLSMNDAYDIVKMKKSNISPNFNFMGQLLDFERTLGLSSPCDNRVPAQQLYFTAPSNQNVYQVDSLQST

[6] = molecular target: T4, Sentrin-specific protease 8 (Homo sapiens, UniProt Q96LD8);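 note: kinetic enzyme assay of SENP8 cleaving a Nedd8 protein substrate, dose-response confirmation of screening hits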
T4 sequence (Q96LD8 whole entry): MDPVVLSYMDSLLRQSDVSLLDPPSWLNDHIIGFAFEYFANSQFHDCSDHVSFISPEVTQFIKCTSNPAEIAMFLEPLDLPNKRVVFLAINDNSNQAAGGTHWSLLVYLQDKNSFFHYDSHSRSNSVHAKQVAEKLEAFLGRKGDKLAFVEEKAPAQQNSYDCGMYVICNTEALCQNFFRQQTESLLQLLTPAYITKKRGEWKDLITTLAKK

[7] = molecular target: Cyclin-dependent kinase 5 (Homo sapiens, UniProt Q00535);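 note: CDK5 measured as one member of a kinase profiling panel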
Chain of Cyclin-dependent kinase 5 (Q00535 whole entry): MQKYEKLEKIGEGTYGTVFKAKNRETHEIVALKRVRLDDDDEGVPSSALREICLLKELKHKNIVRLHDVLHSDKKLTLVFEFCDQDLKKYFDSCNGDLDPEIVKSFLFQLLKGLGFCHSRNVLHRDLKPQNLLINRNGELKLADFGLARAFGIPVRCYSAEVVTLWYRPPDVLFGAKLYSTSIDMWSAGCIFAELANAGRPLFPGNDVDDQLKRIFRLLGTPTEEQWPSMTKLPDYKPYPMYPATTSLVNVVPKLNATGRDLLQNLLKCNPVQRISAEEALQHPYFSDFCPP

[8] = molecular target: Serine/threonine-protein kinase Nek4 (Homo sapiens, UniProt P51957)
[9] = molecular target: Cyclin-dependent kinase 1 (Homo sapiens, UniProt P06493);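 note: Kinome-wide panel profiling, with the target listed as panel member CDC2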
Chain of Cyclin-dependent kinase 1 (P06493 whole entry): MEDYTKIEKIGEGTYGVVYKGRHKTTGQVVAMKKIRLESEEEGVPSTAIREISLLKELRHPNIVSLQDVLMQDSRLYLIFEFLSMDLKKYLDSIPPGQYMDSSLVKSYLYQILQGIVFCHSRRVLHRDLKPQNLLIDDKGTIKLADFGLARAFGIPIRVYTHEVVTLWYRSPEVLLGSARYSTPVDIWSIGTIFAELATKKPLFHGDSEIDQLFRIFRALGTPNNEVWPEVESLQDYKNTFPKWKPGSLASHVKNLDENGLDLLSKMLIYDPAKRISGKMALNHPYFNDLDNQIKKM

[10] = molecular target: Misshapen-like kinase 1 (Homo sapiens, UniProt Q8N4C8);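 note: kinome panel screen with MINK as the panel member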
[11] = molecular target: Serine/threonine-protein kinase N2 (Homo sapiens, UniProt Q16513)
[12] = molecular target: Tyrosine-protein kinase receptor TYRO3 (Homo sapiens, UniProt Q06418);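 note: TYRO3 value obtained as one member of a kinome-wide profiling panel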
[13] = molecular target: Serine/threonine-protein kinase D2 (Homo sapiens, UniProt Q9BZL6);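 note: measured against PRKD2 as one member of a kinome-wide kinase profiling panel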
Chain of Serine/threonine-protein kinase D2 (Q9BZL6 whole entry): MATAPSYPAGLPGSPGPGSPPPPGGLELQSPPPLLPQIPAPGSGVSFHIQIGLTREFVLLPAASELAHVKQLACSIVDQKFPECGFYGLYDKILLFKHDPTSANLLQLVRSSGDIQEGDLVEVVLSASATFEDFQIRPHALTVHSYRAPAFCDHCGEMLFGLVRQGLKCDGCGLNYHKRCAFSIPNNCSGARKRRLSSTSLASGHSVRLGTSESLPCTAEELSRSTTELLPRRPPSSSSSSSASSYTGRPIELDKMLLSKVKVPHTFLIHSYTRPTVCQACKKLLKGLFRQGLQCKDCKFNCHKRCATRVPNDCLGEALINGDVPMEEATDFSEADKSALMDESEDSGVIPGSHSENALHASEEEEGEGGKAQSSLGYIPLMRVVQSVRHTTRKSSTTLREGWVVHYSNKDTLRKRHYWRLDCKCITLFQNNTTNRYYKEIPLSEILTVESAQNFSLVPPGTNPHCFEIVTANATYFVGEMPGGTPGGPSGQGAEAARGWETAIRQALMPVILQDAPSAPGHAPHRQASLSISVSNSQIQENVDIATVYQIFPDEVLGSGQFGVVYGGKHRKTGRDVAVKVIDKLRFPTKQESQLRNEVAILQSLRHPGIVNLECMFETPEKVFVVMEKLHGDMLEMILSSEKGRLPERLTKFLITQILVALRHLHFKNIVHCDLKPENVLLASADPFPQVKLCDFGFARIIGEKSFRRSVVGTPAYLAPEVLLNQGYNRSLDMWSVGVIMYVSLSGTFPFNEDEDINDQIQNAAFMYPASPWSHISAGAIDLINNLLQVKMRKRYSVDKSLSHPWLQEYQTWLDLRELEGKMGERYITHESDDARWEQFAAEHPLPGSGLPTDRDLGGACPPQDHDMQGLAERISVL

[14] = molecular target: Homeodomain-interacting protein kinase 2 (Homo sapiens, UniProt Q9H2X6);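 note: measured within a kinome-wide kinase profiling panel, HIPK2 being one panel member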
Chain of Homeodomain-interacting protein kinase 2 (Q9H2X6 whole entry): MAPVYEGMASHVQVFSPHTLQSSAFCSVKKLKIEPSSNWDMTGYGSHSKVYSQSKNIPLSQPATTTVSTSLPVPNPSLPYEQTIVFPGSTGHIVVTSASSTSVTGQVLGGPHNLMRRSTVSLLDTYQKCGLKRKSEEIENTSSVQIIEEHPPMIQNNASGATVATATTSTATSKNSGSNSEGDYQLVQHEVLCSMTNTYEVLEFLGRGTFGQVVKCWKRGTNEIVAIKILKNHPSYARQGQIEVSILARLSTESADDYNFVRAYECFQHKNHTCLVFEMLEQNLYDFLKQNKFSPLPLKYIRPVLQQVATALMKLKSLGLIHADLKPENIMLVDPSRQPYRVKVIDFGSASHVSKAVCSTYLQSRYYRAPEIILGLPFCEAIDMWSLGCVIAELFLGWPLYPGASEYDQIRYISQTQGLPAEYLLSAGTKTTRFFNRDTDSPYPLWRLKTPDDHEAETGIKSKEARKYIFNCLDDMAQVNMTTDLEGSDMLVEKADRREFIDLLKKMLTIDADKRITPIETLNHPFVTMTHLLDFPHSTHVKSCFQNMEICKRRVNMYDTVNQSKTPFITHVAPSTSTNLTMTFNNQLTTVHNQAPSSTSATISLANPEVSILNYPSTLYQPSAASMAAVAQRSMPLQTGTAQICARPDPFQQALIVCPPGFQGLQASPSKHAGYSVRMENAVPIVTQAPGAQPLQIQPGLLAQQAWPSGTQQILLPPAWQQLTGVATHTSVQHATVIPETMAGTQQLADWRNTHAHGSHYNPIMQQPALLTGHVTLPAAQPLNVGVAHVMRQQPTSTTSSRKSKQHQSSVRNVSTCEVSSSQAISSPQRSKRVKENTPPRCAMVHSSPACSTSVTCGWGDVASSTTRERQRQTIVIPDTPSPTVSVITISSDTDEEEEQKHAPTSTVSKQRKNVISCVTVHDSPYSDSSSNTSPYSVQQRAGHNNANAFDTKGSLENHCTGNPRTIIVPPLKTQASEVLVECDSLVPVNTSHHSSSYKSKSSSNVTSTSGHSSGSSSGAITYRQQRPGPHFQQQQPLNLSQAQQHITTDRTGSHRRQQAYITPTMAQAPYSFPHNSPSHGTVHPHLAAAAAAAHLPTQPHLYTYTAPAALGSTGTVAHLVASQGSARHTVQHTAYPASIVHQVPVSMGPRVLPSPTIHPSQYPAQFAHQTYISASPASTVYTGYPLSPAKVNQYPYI

[15] = molecular target: Fibroblast growth factor receptor 3 (Homo sapiens, UniProt P22607)
Chain of Fibroblast growth factor receptor 3 (P22607 whole entry): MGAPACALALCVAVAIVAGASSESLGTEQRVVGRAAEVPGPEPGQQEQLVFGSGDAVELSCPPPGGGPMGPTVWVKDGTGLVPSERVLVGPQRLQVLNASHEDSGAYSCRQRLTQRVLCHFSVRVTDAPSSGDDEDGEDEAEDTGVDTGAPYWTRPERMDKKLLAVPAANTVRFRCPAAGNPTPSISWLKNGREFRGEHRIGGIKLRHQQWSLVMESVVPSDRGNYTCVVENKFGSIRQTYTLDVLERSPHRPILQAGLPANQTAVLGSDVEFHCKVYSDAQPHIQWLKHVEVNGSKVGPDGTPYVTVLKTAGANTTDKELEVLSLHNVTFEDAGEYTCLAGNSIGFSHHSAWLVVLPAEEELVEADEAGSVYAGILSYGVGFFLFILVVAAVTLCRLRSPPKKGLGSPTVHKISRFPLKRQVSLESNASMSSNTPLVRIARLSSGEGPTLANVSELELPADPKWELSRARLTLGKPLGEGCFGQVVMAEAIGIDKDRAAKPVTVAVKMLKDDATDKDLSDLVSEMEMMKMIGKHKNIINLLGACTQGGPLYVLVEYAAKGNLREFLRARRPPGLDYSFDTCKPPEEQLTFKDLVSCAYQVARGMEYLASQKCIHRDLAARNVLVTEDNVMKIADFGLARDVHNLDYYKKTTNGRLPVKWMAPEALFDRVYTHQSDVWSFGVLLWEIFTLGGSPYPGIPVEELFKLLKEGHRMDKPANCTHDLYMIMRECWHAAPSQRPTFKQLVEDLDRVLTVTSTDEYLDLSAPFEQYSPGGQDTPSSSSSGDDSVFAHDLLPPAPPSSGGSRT

[16] = molecular target: Tyrosine-protein kinase JAK3 (Homo sapiens, UniProt P52333)
Chain of Tyrosine-protein kinase JAK3 (P52333 whole entry): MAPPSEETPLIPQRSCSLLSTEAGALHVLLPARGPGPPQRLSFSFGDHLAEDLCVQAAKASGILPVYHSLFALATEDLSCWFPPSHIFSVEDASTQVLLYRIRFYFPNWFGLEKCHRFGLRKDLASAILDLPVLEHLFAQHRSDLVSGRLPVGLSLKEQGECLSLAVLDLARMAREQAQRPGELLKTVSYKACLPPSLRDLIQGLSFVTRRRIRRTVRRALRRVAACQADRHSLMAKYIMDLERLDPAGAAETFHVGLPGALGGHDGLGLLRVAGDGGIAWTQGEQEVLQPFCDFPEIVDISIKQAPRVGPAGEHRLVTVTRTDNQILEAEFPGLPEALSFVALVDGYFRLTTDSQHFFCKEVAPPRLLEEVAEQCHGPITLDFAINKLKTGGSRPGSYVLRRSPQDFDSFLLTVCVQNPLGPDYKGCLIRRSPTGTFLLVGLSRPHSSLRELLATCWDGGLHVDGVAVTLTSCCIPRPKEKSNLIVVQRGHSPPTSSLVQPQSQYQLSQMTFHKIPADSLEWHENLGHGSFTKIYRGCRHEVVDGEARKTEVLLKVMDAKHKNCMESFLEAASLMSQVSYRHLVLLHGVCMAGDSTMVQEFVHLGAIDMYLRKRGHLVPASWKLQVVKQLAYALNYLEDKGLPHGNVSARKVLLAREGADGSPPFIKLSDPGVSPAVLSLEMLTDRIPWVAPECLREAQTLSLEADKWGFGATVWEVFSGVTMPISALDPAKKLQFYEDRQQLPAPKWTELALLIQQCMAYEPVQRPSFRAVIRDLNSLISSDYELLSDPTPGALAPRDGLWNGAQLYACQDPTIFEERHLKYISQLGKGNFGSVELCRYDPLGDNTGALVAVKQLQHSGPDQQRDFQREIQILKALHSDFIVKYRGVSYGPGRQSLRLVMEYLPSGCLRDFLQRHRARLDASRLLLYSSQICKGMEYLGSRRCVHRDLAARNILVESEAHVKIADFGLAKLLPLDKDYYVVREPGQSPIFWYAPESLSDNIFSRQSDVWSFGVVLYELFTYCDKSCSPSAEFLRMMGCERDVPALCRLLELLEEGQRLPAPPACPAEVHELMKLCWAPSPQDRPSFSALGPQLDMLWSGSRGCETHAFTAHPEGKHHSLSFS

Compound: CC(=O)NC1C(=O)N(CCN2CCOCC2)c2ccc(F)cc21 (stereo not drawn)
IC50 [1]: 14900 nM (active)

IC50 [2]: 51600 nM (active)
IC50 [3]: 26700 nM (active)
Compound: O=C1N=C(NS(=O)(=O)Cc2ccccc2)S/C1=C1\C(=O)Nc2ccccc21

Compound: O=C(O)C1Nc2c(O)cc(Cl)c([N+](=O)[O-])c2C2C=CCC12 (stereo not drawn)
IC50 [4]: > 54000 nM (active)
IC50 [5]: 35400 nM (active)

Compound: O=C(CCc1ccccc1)NNc1cc(N2CCCCC2)nc(N2CCCCC2)n1
IC50 [6]: 1010 nM (active)

Ki [7]: 12.6 nM (active)
pKi [7]: 7.9
Ki [8]: 251 nM (active)
Ki [9]: 39.8 nM (active)
pKi [9]: 7.4
Ki [10]: 25.1 nM (active)
Ki [11]: 15.8 nM (active)
Ki [12]: > 2000 nM (inactive)
Ki [13]: 39.8 nM (active)
Ki [14]: 79.4 nM (active)
Ki [15]: > 2000 nM (inactive)
Ki [16]: 794 nM (active)
Compound: Cc1n[nH]c2ccc(-c3cncc(OCC(N)Cc4cccc(Cl)c4)c3)cc12 (stereo not drawn)
